Calls of active or inactive are those of the source. The rule behind the calls is not given here.
Test system: CCRIS mutagenicity, Ames/micronucleus/aberration tests
Assay: CCRIS mutagenicity studies
Conditions: Method: STANDARD PLATE
[1] = Test System: AMES SALMONELLA TYPHIMURIUM, Strain/Indicator: TA98, Metabolic Activation: NONE
[2] = Test System: AMES SALMONELLA TYPHIMURIUM, Strain/Indicator: TA1535, Metabolic Activation: NONE

For `Nc1cccc2c(N)cccc12`, the mutagenic call [1] was “inactive; negative”, the mutagenic call (Test System: AMES SALMONELLA TYPHIMURIUM, Strain/Indicator: TA98, Metabolic Activation: RAT, LIVER, S-9) was “inactive; negative” and the mutagenic call (Test System: AMES SALMONELLA TYPHIMURIUM, Strain/Indicator: TA1535, Metabolic Activation: HAMSTER, LIVER, S-9, AROCLOR 1254) was “inactive; negative”. For the same molecule, the mutagenic call (Test System: AMES SALMONELLA TYPHIMURIUM, Strain/Indicator: TA1535, Metabolic Activation: HAMSTER, LIVER, S-9) was “inactive; negative”, the mutagenic call (Test System: AMES SALMONELLA TYPHIMURIUM, Strain/Indicator: TA1535, Metabolic Activation: MOUSE, LIVER, S-9, AROCLOR 1254) was “inactive; negative” and the mutagenic call (Test System: AMES SALMONELLA TYPHIMURIUM, Strain/Indicator: TA1535, Metabolic Activation: MOUSE, LIVER, S-9) was “inactive; negative”. For the same molecule, the mutagenic call [2] was “inactive; negative”, the mutagenic call (Test System: AMES SALMONELLA TYPHIMURIUM, Strain/Indicator: TA1535, Metabolic Activation: RAT, LIVER, S-9, AROCLOR 1254) was “inactive; negative” and the mutagenic call (Test System: AMES SALMONELLA TYPHIMURIUM, Strain/Indicator: TA1535, Metabolic Activation: RAT, LIVER, S-9) was “inactive; negative”. For the same molecule, the mutagenic call (Test System: AMES SALMONELLA TYPHIMURIUM, Strain/Indicator: TA1537, Metabolic Activation: HAMSTER, LIVER, S-9, AROCLOR 1254) was “active; positive”, the mutagenic call (Test System: AMES SALMONELLA TYPHIMURIUM, Strain/Indicator: TA1537, Metabolic Activation: MOUSE, LIVER, S-9) was “inactive; negative” and the mutagenic call (Test System: AMES SALMONELLA TYPHIMURIUM, Strain/Indicator: TA1537, Metabolic Activation: RAT, LIVER, S-9) was “inactive; negative”. The mutagenic call (Test System: AMES SALMONELLA TYPHIMURIUM, Strain/Indicator: TA1538, Metabolic Activation: MOUSE, LIVER, S-9, AROCLOR 1254) was “inactive; negative”, the mutagenic call (Test System: AMES SALMONELLA TYPHIMURIUM, Strain/Indicator: TA1538, Metabolic Activation: MOUSE, LIVER, S-9) was “inactive; negative” and the mutagenic call (Test System: AMES SALMONELLA TYPHIMURIUM, Strain/Indicator: TA1538, Metabolic Activation: NONE) was “inactive; negative”. The mutagenic call (Test System: AMES SALMONELLA TYPHIMURIUM, Strain/Indicator: TA1538, Metabolic Activation: RAT, LIVER, S-9) was “inactive; negative”, the mutagenic call (Test System: E. COLI, Strain/Indicator: WP2 UVRA, Metabolic Activation: HAMSTER, LIVER, S-9, AROCLOR 1254) was “inactive; negative” and the mutagenic call (Test System: E. COLI, Strain/Indicator: WP2 UVRA, Metabolic Activation: HAMSTER, LIVER, S-9) was “inactive; negative”. For the same molecule, the mutagenic call (Test System: E. COLI, Strain/Indicator: WP2 UVRA, Metabolic Activation: MOUSE, LIVER, S-9, AROCLOR 1254) was “inactive; negative”, the mutagenic call (Test System: E. COLI, Strain/Indicator: WP2 UVRA, Metabolic Activation: MOUSE, LIVER, S-9) was “inactive; negative” and the mutagenic call (Test System: E. COLI, Strain/Indicator: WP2 UVRA, Metabolic Activation: NONE) was “inactive; negative”. The mutagenic call (Test System: E. COLI, Strain/Indicator: WP2 UVRA, Metabolic Activation: RAT, LIVER, S-9, AROCLOR 1254) was “inactive; negative” and the mutagenic call (Test System: E. COLI, Strain/Indicator: WP2 UVRA, Metabolic Activation: RAT, LIVER, S-9) was “inactive; negative”.

`Nc1snc2cc(Cl)ccc12` was tested, and the mutagenic call [1] was “inactive; negative”, the mutagenic call (Test System: AMES SALMONELLA TYPHIMURIUM, Strain/Indicator: TA98, Metabolic Activation: S-9) was “inactive; negative” and the mutagenic call (Test System: AMES SALMONELLA TYPHIMURIUM, Strain/Indicator: TA100, Metabolic Activation: NONE) was “inactive; negative”. The mutagenic call (Test System: AMES SALMONELLA TYPHIMURIUM, Strain/Indicator: TA100, Metabolic Activation: S-9) was “active; positive”, the mutagenic call [2] was “inactive; negative” and the mutagenic call (Test System: AMES SALMONELLA TYPHIMURIUM, Strain/Indicator: TA1535, Metabolic Activation: S-9) was “inactive; negative”. The mutagenic call (Test System: AMES SALMONELLA TYPHIMURIUM, Strain/Indicator: TA1537, Metabolic Activation: NONE) was “inactive; negative” and the mutagenic call (Test System: AMES SALMONELLA TYPHIMURIUM, Strain/Indicator: TA1537, Metabolic Activation: S-9) was “active; positive”.

From PubChem BioAssay AID1259407 (Chemical Carcinogenesis Research Information System (CCRIS), 2018)
